{"source": "patent US20170209579A1", "about": "“NON-INVASIVE RADIOFREQUENCY FIELD TREATMENT FOR CANCER THERAPY” (Baylor College of Medicine, priority 2014, published 2017)", "key": {"[1]": {"test_system": "subcutaneous pancreatic tumors", "assay": "Tumor size in mice bearing subcutaneous pancreatic tumors, RF + Gemcitabine", "format": "in vivo, mouse", "conditions": "Gemcitabine 70 mg/Kg intravenously once per week; higher power RF system (0-1200 W); n=5", "method": "(13A) Mice bearing subcutaneous pancreatic tumors were exposed to either RF, Gemcitabine, or RF+Gemcitabine once per week until the control group tumor size became a burden (n=5 in each group). The RF system used can be seen in (13B) and is a higher power version (0-1200 W) of the portable RF system. RF conditions were similar to that shown in (13B). Gemcitabine was given intravenously at a dosage of 70 mg/Kg. […] (13A) Mice bearing subcutaneous pancreatic tumors were exposed to non-invasive RF, Gemcitabine, or non-invasive RF+Gemcitabine once per week until the control group tumor size became a burden (n=5 in each group). The non-invasive RF system used can be seen in (13B) and is a higher power version (0-1200 W) of the portable RF system. non-invasive RF conditions were similar to that shown in FIG. 13B. Gemcitabine was given intravenously at a dosage of 70 mg/Kg."}, "[2]": {"test_system": "shMre11 Hep3B cell line", "assay": "Clonogenic assay, Mre11 knockdown (shMre11) Hep3B cell line", "format": "cell-based, human", "excerpt": "For generating an Mre11-knockdown cell line, GPIZ lentiviral shRNA (Open biosystems, Lafayette, Colo.) was used according to the supplied protocol. In order to generate lentivirus, Hep3B cells were transfected in separate experiments with three random clones from a,shRNA library against Mre11 or a control shRNA together with a packaging plasmid (Trans-lentiviral packaging system, Open biosystems, Lafayette, Colo.) using lipofectamine 2000 (Invitrogen, Life technologies, Grand Island, N.Y.). Approximately 72 hours later, cells were observed under a microscope to express GFP, which is a marker of expression of shRNA against Mre11. Relative mre11 knockdown was confirmed by western blot analysis.\nClonogenic assay estimates single-cell reproductive viability by measuring the ability of a single cell to form a colony of 50 cells or more. Clonogenic assay in this study was performed as described previously (Franken et al., 2006). Briefly, cancer cells from an exponentially growing, sub-confluent culture were trypsinized and harvested. Approximately 200 cells were counted and plated in each well of a 6-well plate. Approximately 12 hours later, the cells were adherent and treatment conditions were introduced as described herein. […] The number of colonies in each well was counted using a colony counting grid. […]"}, "[3]": {"test_system": "Hep3B orthotopic tumors", "assay": "Orthotopic Hep3B xenografts in CB17 SCID mice, tumor mass", "format": "in vivo, mouse", "excerpt": "For in vivo studies, an implanted mouse model of human HCC was generated in CB17SCID mice (Taconic, Hudson, N.Y.). Female mice between 4 and 5 weeks in age were purchased and acclimatized in M.D. Anderson Animal facilities for up to one week. All animals were handled, housed and studied in accordance with the Institutional Animal Care and Use Committee. Tumors were generated after orthotopic implantation of approximately 1.6 million cells into the liver of each mouse (10 mice per group). Bioluminescence imaging indicated tumor development in the majority of mice three weeks after implantation. Euthanasia was performed by carbon dioxide inhalation followed by cervical spine dislocation.\nCultured luciferase and GFP-expression human HCC cell lines (Hep3B and HepG2) were harvested from an exponentially growing culture and washed with PBS. The cells were re-suspended in 3 ml PBS and final centrifugation was performed at 1000 RPM for 5 minutes. Supernatant was discarded and the cell pellet was used for implantation. The concentration of cells achieved using this protocol was 160,000 cells per micro liter. The cells were kept on ice and animals were injected within 3-4 hours after final centrifugation.\nBefore surgery, hair was removed from the ventral surface of the abdomen using clippers. Mice were anesthetized using 2.5% isoflurane. The surgical field was sterilized with 70% (v/v) ethanol in water. Mice were placed supine on a heating pad and the surgical site was sterilized using povidone iodine swab sticks. After confirming induction of anesthesia, an approximately 1-cm transverse incision was made in the skin of the upper abdomen slightly left of the midline. Deeper layers of muscle and peritoneum were incised and hemostasis was achieved using silver nitrate chemical cautery sticks. By applying gentle pressure on the lower abdomen and lower chest, the left lobe of the liver was eviscerated. […]\nMice with confirmed tumors on bioluminescence were then randomized in groups of 10. […] Sample size was calculated using Stata SE 12.1 for Mac (College Station, Tex.). […]"}}}
{"smiles": "Nc1ccn([C@@H]2O[C@H](CO)[C@@H](O)C2(F)F)c(=O)n1", "note": "[gemcitabine, 2′,2′-difluoro 2′-deoxycytidine]", "values": [{"measurement": "tumor size, Gemcitabine+RF group compared to other groups", "setting": "[1]", "result": "clear reduction in tumor size"}, {"measurement": "sensitivity to gemcitabine, shMre11 versus shControl cell line", "setting": "[2]; clonogenic survival", "result": "more sensitive to gemcitabine"}, {"measurement": "thermal enhancement of gemcitabine toxicity", "setting": "[2]; shControl versus shMre11 cells", "result": "noted for shControl but not shMre11 cells"}, {"measurement": "Mean tumor mass [±SD]", "setting": "[3]; RF then gemcitabine (RF 10 min, 600 W, immediately followed by gemcitabine)", "result": "180 ± 91", "unit": "mg"}, {"measurement": "Mean tumor mass [±SD]", "setting": "[3]; gemcitabine alone, 70 mg/kg/dose twice a week for three weeks", "result": "661 ± 419", "unit": "mg"}, {"measurement": "Mean tumor mass [±SD]", "setting": "[3]; gemcitabine then RF (RF 24 hours later)", "result": "291 ± 126", "unit": "mg"}]}
